Experimental data from a melting point compilation (Tetko et al.; mined from patent text by program, amines drawn as free bases though some values may be those of a salt).

| SMILES | melting point |
| --- | --- |
| COC(=O)C1=C(C)NC(C)=C(C(=O)OCOC(=O)C(C)(C)C)C1c1ccccc1 (single isomer, unassigned; (+)) | 81 to 82 °C |
| CN(C)c1ccc(OCc2ccncc2)cc1 | 123 to 125 °C |
| CCc1ncnc(O)c1Br | 175 to 177 °C |
| CC#CCOc1ccc(S(=O)(=O)NC2(C(=O)OC)CCCC2)cc1 | 81 to 83 °C |
| Cc1nc2c3c(c(C(=O)NCCO)cc2n1C)CCC(c1ccccc1)O3 (configuration not stated) | 228 to 229 °C |
| CC(C)(C)OC(=O)N1CCC(c2ccc(N3C[C@H](CN)OC3=O)cc2F)CC1 | 136 to 137 °C |
| CC(=O)OC[C@H]1O[C@@H]2[C@@H](Sc3ccccc3N2C(=O)c2ccccc2)[C@@H](OC(C)=O)[C@@H]1OC(C)=O | 154 to 155 °C |
| COC(=S)c1sc(C)c(N)c1N | 95 to 97 °C |
| COc1ccc2nc3c(cc2c1)c(N)nn3CC(=O)N(C)C | 251 to 253 °C |
| C[C@H](Cc1ccc2c(c1)cc(C(=O)O)n2Cc1ccccc1)NC[C@H](O)c1cccc(Cl)c1 | 128 to 130 °C |
| Cc1cc(NC(=O)Cc2ccccc2C(F)(F)F)cc(C)c1S(=O)(=O)C[N+](=O)[O-] | 203 to 204 °C |
| CCOCc1nc2cnc3cc(Br)ccc3c2n1CCN1CCN(C(=O)OC(C)(C)C)CC1 | 140 to 143 °C |
| Cc1ccc(C(=O)NC(NC(=S)Nc2cccnc2)c2ccccc2)cc1 (configuration not stated) | 156 to 158 °C |
| CC1(C)c2ccccc2[C@H]2Nc3ccccc3[C@H]21 (relative stereo) | 57 to 59 °C |
| C=CCC(CC1CC2CCN1CC2)(c1ccccc1)c1ccccc1 (configuration not stated) | 95.5 to 98 °C |
| N#CCCc1c(-c2ccccc2)c(=O)[nH]c2cc(Cl)ccc12 | 252 to 254 °C |
| CN(C)C=NS(=O)(=O)c1nc2ccc(O)cc2s1 | 195 to 198 °C |
| Oc1cc(-c2ncnc(C(F)(F)F)c2Cl)c(F)cc1Cl | 130 to 132 °C |
| O=C1OC2(CCN(C(=O)Nc3cnc(-c4ccccc4)cn3)CC2)c2ccc(F)cc21 | 236 to 238 °C |
| Cc1c(CC(=O)O)c2cc(OCc3ccccn3)ccc2n1Cc1ccc(Cl)cc1 | 231 to 233 °C |

| SMILES | melting point |
| --- | --- |
| CCCc1c(OCCCCCOc2ccc3cc(OCC(=O)O)ccc3c2CCC(=O)O)ccc2c1OCCC2=O | 160 to 163 °C |
| CCCCCCCCCCCCCCCCCC(=O)OC1CCN(O)CC1 | 75 to 80 °C |
| COC1(c2cc(F)cc(Sc3ccc4c(c3)CCC(=S)N4C)c2)CCOCC1 | 134 °C |
| Fc1cc(F)c(N=C2NCCN2)c(F)c1F | 167 to 168 °C |
| COc1cccc(CCNCCc2c[nH]cn2)c1 | 98 to 100 °C |
| COC(=O)C(C)(Cc1ccc(OCCc2nc(-c3ccccc3)oc2C)cc1)C(=O)OC | 75.1 to 76 °C |
| COC(=O)C12COc3cc(C(F)(F)F)ccc3C1=NN(C(=O)N(C)c1ccc(C(F)(F)F)cc1)C2 (configuration not stated) | 105 to 111 °C |
| O=C(N[C@H](Cc1ccc(C(F)(F)F)cc1)[C@@H](O)c1cccc(F)c1)c1cccc2c1C=CCCC2 (racemic) | 151 to 152 °C |
| C[C@@H](n1cnc2cc(S(=O)(=O)c3ccccc3)ccc2c1=O)[C@](O)(Cn1cncn1)c1ccc(F)cc1F | 125 to 130 °C |
| CC(O)CNc1cc(Cl)cc(NCC(C)O)c1[N+](=O)[O-] (configuration not stated) | 170 °C |
| O=C(CSCCNC(=O)c1ccco1)NCCCOc1cccc(CN2CCCCC2)c1 | 60.5 to 61.5 °C |
| COc1cc(-c2nc3ccccc3[nH]2)cc([N+](=O)[O-])c1O | 198 to 200 °C |
| CC(C)(C)[Si](C)(C)OCC1(CO[Si](C)(C)C(C)(C)C)COc2cc(I)cc3c(=O)c(C(=O)NCc4ccc(Cl)cc4)cn1c23 | 158 to 159 °C |
| O=C/C(=C/c1ccccc1)c1ccc(Cl)cc1 | 70 to 75 °C |
| CC1(C)CC(OC(=O)CCCCCCCCC(=O)OC2CC(C)(C)N(CC#N)C(C)(C)C2)CC(C)(C)N1CC#N | 91 °C |
| Cc1cc(-c2ccc(C(F)(F)F)nc2)nc(-c2cccc(-c3ccc(S(N)(=O)=O)s3)c2)n1 | 238 °C |
| CCCN=C(N)Nc1ccnc(SCCCC(=N)NC#N)n1 | 210 to 215 °C |
| CC1(CNC(=O)C(F)(F)F)CN(c2c(F)cc3c(=O)c(C(=O)O)cn(C4CC4)c3c2F)C1 | 232 to 237 °C |
| OC1C2CCN(CC2)C1C#Cc1ccc(-c2cccnc2)cc1 (configuration not stated) | 189 to 190 °C |
| Cn1c(C(=O)C(C)(C)C)cc2cc(OCc3ccccc3)ccc21 | 101 to 103 °C |

| SMILES | melting point |
| --- | --- |
| CCCCCCCCCCCCCCCCCC(=O)Nc1ccn(C2OC(CO)C(O)C2O)c(=O)n1 (configuration not stated) | 147 to 151 °C |
| CNC(=O)c1c(NC(=O)CBr)c(OC)c(C(=O)NC)c(NC(=O)CBr)c1OC | 308 to 310 °C |
| COc1ccc(COc2ccc(NC(C)=O)cc2C(=O)C=Cc2ccc(OCc3ccccc3)c(OCc3ccccc3)c2)cc1 | 145 to 146 °C |
| CC(=O)OCc1[nH]c2c(c1C)C(=O)C(N1CC1)=C(C)C2=O | 210 to 212 °C |
| CCc1nc2c(N)nc3cc(OS(C)(=O)=O)ccc3c2n1CCOc1ccccc1 | 213 to 214 °C |
| COc1ccc2[nH]cc(CC(C)(C)N)c2c1 | 114 to 116 °C |
| COc1ccc(-c2nc(C(=O)NC(=N)N)sc2-c2ccc(OC)cc2)cc1 | 253 to 255 °C |
| COc1ccc2nc(OC)cc(CCNC(C)=O)c2c1 | 119 to 121 °C |
| CCOCCOC(=O)C(=O)Nc1nc(-c2ccc(OC)cc2OC)cs1 | 118 to 120 °C |
| CCOC(=O)CNc1c(C#N)cnn1-c1ccc(C(F)(F)F)cc1Cl | 100 to 102 °C |
| Cc1nnc(-c2ccc(O)cc2)o1 | 239 °C |
| CN(C(=O)c1ccccc1)[Si](C)(C)N(C)C(=O)c1ccccc1 | 54 to 56 °C |
| CC1=C(Cc2ccc(NC(=O)OC(C)(C)C)cc2)C(=O)C2C=CC=CC2C1=O (configuration not stated) | 148 to 149 °C |
| CNC(=O)c1ccc(=O)n(CCNC(=O)c2cccnc2)c1 | 208 to 210 °C |
| COC(=O)C(C)NC(=O)NCCCCC1CCSS1 (configuration not stated) | 72 to 82 °C |
| COC(=O)c1cccc(O)c1C | 74 to 75 °C |
| Nc1nc(N)c2cc(S(=O)(=O)c3ccc4ccccc4c3)ccc2n1 | 300 to 302 °C |
| CNC(=S)NS(=O)(=O)c1cc(CCNC(=O)c2cnc3ccccc3c2)ccc1OC | 85 °C |
| CN(C)CCCCCCOc1ccc(C(=O)CCc2ccccc2)cc1 | 27 to 28 °C |
| COC1(c2cc(F)cc(Sc3ccc(C(F)(F)c4ccc(F)cc4)cc3)c2)CCOCC1 | 54 to 57 °C |

Next, values leading:

| melting point | SMILES |
| --- | --- |
| 145 °C | Cc1ccc(S(=O)(=O)N2[C@@H](CCc3ncnn3C)CC[C@H]2c2ccc(F)cc2)cc1 (racemic) |
| 105 °C | CC1(O)c2ccccc2CCC1OS(=O)(=O)CC12CCC(CC1=O)C2(C)C (configuration not stated) |
| 230 °C | O=C(O)COC1(Cl)CC(c2ccccc2)=Nc2ccccc21 (configuration not stated) |
| 190 to 191 °C | CCOC(=O)CCc1cn(Cc2ccc(C(=O)NCc3nc(-c4ccccc4)oc3C)cc2)nc1-c1ccccc1 |
| 172 to 178 °C | Clc1cccc2c1C1(CO1)c1cccc(Cl)c1C21CO1 (configuration not stated) |
| 198 to 202 °C | CC=CCNc1cc(C(=O)O)cc(S(N)(=O)=O)c1Oc1cccc(NC(C)=O)c1 |
| 158 °C | COc1ccccc1C1(O)C(O)CC(c2ccccc2)(c2ccccc2)C2CN(C(=O)Cc3ccccc3OCc3ccccc3)CC21 (configuration not stated) |
| 221 to 222 °C | CC(C)Nc1nc2c(Br)c(Cl)c(Cl)cc2n1[C@H]1O[C@@H](CO)[C@H](O)[C@@H]1O |
| 177 to 179 °C | Cc1ccc(-c2ccc(C(=O)Nc3ccc4cc(CN5CCCC5)cnc4c3C)cc2)cc1 |
| 151 to 152 °C | COC(=O)c1cc(-c2ccncc2)cc2c1OC(c1ccccc1)(c1ccccc1)O2 |
| 82 to 85 °C | Cc1cc(SCc2ccnc3sc(-c4ccc(C(F)(F)F)cc4)nc23)ccc1OCC(=O)O |
| 199 to 202 °C | Fc1cccc(F)c1-c1cnc(-c2ccc(-c3ccc(OC(F)(F)F)cc3)cc2)nn1 |
| 94 °C | CCCCS(=O)(=O)Oc1ccc(CCOc2ccc(/C=C(\OCC)C(=O)O)cc2OC)cc1 |
| 114 to 116 °C | CC(C)(C)N1Sc2ccccc2C1O (configuration not stated) |
| 176 to 177 °C | O=C(c1cccc(F)c1)N1Cc2c(-c3ccc(F)cc3)ncn2-c2ccccc21 |
| 240 °C | CC(C)(C)c1cc(Cl)c2c(c1)-c1ccccc1P(=O)(O)O2 |
| 122 to 125 °C | CONC(=O)NC1CCCc2ccccc21 (configuration not stated) |
| 228 to 229 °C | Cc1nn(-c2c(Cl)cc(C(F)(F)F)cc2Cl)nc1-c1nc(C#N)c(C#N)[nH]1 |
| 115 to 121 °C | Cc1nc2cc(-n3cccc3)ccc2o1 |

| melting point | SMILES |
| --- | --- |
| 218 to 221 °C | Cc1ccc2[nH]c3ccc(C)cc3c2c1 |
| 95 to 97 °C | CC(C)(C)NCC(O)COc1cccc2[nH]cc(Cl)c12 (configuration not stated) |
| 300 °C | CC1=CC2=C(N3CN(O)C=C3N=N2)N(c2ccccc2Cl)C1 |
| 98 to 105 °C | COC(=O)c1ccc(S(C)(=O)=O)c(C=O)c1Cl |
| 59 to 60 °C | CC12CCC1C(=O)OC2=O (configuration not stated) |
| 97 to 100 °C | Cc1c(C(F)(F)F)nn(-c2c(Cl)cc(C(F)(F)F)cc2Cl)c1N |
| 133 to 136 °C | COC(=O)c1c(C)cc2cc(OC)c(OC)cc2c1-c1ccnc(Cl)c1 |
| 180 to 182 °C | COC(=O)C1=C(C)NC(CCn2ccnc2)=C(C(=O)OC)C1c1cccc(Cl)c1Cl (configuration not stated) |
| 115 to 116 °C | O=C(NCCN1CCCC1)c1cccc(-c2cccc(OCCc3ccc(Cl)cc3Cl)n2)c1 |
| 75 °C | CCCCCCCCOc1ncc(-c2ccc(OC(=O)[C@H]3CCCO3)cc2)cn1 |
| 53 to 55 °C | OC/C=C/c1ccc(C(F)(F)F)cc1 |
| 118 to 120 °C | O=C(O)c1ccccc1OCCN1CCC(c2cn(CCC3OCCO3)c3ccccc23)CC1 |
| 118 °C | O=c1oc(-c2ccc(OCCCC(F)(F)F)cc2)nn1CCO |
| 69 to 70 °C | Cc1cc(C)cc(SCCC(=O)O)c1 |
| 81 °C | CNC(=O)C(=NOCF)c1ccccc1OC1CCCCO1 (configuration not stated) |
| 83 to 85 °C | Nc1ncnc2c1c(-c1ccc(Oc3cccc(CN4CCOCC4)c3)cc1)cn2C1CCOC1 (configuration not stated) |
| 327 to 332 °C | N#Cc1cccc2c1NC(=O)C2c1ncnc2c1cnn2C1CCCC1 (configuration not stated) |
| 113 to 116 °C | O=C(NN1CCCCC1)C1CN(c2ccc(Cl)cc2)C(c2ccc(Cl)cc2Cl)=N1 (configuration not stated) |
